From US11566007B2, “Ras inhibitors” (Revolution Medicines, Inc., priority 2019, dated 2023)
pIC50: −log10 of the molar value. Where two headings read alike, the source gives them in different places.

Key:
[1] = target: NRAS WT (Homo sapiens (Human), UniProt P01111+P62937); assay: Ras-Raf (BRAF RBD) disruption / FRET / MOA assay, NRAS WT; assay type: biochemical; settings: read-out: IC50* NRAS WT FRET data
Method in brief: (§1)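 Compounds (30 μM top final, 10-point 3-fold dilutions) incubated 3 h at 25° C with nucleotide-loaded Ras, cyclophilin A and BRAF RBD. Detection with 10 nM anti-His Eu-W1024 and 50 nM anti-GST allophycocyanin over another 1.5 h. Lowered TR-FRET ratio relative to DMSO wells gives IC50.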

[2] = target: NRAS G12C (Homo sapiens (Human), UniProt P01111+P62937, G12C); assay: Ras-Raf (BRAF RBD) disruption / FRET / MOA assay, NRAS G12C; assay type: biochemical; settings: read-out: IC50* NRAS G12C FRET data
Sequence of NRAS G12C (P01111 whole entry G12C): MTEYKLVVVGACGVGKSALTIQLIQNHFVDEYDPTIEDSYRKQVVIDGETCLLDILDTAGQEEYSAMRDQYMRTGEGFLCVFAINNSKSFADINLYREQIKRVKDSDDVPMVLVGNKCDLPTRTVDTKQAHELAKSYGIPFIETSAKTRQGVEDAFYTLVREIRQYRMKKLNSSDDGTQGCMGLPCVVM
Sequence of NRAS G12C (P62937 whole entry): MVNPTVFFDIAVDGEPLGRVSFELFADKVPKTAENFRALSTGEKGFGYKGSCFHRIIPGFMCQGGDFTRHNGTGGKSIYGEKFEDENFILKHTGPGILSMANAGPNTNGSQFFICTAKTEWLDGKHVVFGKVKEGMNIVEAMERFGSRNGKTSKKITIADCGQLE
Method in brief: (§2)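 Compound-driven ternary complex of nucleotide-loaded Ras with cyclophilin A, disrupting BRAF RBD binding. 10-point 3-fold dilution from 30 μM final, 3 h at 25° C, then anti-His Eu-W1024 (10 nM) and anti-GST allophycocyanin (50 nM) for 1.5 h. IC50 from TR-FRET ratio decrease versus DMSO.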

[3] = tested on: NCI-H358 (K-Ras G12C); assay: CellTiter-Glo cell viability assay, NCI-H358; assay type: cell-based, human; settings: Homo sapiens, NCI-H358, 120 h; for pIC50: NCI-H358, 5-day treatment, class symbols, read-out: Additional H358 Cell Viability assay data (K-Ras G12C, IC50)
Method in brief: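 Viability of K-Ras mutant lines is measured by ATP luminescence after five days of compound treatment. Percent of DMSO control is calculated and dose-response data are fitted with a four-parameter logistic equation.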

[4] = target: K-Ras G13C (Homo sapiens (Human), UniProt P01116+P62937, G13C); assay: Ras-Raf (BRAF RBD) disruption / FRET / MOA assay, KRAS G13C; assay type: biochemical
Sequence of K-Ras G13C (P01116-2 other isoform, or with tags, fused parts or gaps G13C): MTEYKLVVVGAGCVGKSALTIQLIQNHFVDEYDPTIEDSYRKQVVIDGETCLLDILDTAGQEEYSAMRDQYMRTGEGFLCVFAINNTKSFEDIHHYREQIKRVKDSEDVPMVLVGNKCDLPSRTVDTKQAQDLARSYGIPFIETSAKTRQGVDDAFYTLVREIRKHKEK
Sequence of K-Ras G13C (P62937 whole entry): as the sequence (P62937 whole entry) above
Method in brief: as §2

[5] = target: KRAS G12V (Homo sapiens (Human), UniProt P01116+P62937, G12V); assay: Ras-Raf (BRAF RBD) disruption / FRET / MOA assay, KRAS G12V; assay type: biochemical; settings: read-out: IC50* KRAS G12V FRET data
Sequence of KRAS G12V (P01116-2 other isoform, or with tags, fused parts or gaps G12V): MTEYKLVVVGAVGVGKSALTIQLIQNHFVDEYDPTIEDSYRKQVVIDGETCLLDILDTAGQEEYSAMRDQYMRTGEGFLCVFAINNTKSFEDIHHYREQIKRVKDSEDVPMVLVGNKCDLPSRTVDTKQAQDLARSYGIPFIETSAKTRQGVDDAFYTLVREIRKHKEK
Sequence of KRAS G12V (P62937 whole entry): as the sequence (P62937 whole entry) above
Method in brief: as §2

[6] = target: KRAS G12D (Homo sapiens (Human), UniProt P01116+P62937, G12D); assay: Ras-Raf (BRAF RBD) disruption / FRET / MOA assay, KRAS G12D; assay type: biochemical; settings: Ras-Raf disruption/FRET/MOA assay; class symbols; read-out: KRAS G12D FRET data IC50
Sequence of KRAS G12D (P01116-2 other isoform, or with tags, fused parts or gaps G12D): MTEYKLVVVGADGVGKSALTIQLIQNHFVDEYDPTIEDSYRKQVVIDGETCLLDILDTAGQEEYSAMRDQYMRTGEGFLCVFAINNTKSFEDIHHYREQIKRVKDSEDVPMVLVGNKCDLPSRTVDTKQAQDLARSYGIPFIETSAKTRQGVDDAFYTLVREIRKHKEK
Sequence of KRAS G12D (P62937 whole entry): as the sequence (P62937 whole entry) above
Method in brief: as §2

[7] = target: NRAS Q61R (Homo sapiens (Human), UniProt P01111+P62937, Q61R); assay: Ras-Raf (BRAF RBD) disruption / FRET / MOA assay, NRAS Q61R; assay type: biochemical; settings: NRAS Q61R; Ras-Raf disruption/FRET/MOA assay; read-out: IC50* NRAS Q61R FRET data
Sequence of NRAS Q61R (P01111 whole entry Q61R): as the sequence (P01111 whole entry G12C) above, with C12G, Q61R counted along it
Sequence of NRAS Q61R (P62937 whole entry): as the sequence (P62937 whole entry) above
Method in brief: as §1

[8] = KRAS G13C, Ras-Raf disruption/FRET/MOA assay, read-out: IC50* KRAS G13C FRET data

Sequence of NRAS WT (P01111 whole entry): as the sequence (P01111 whole entry G12C) above, with C12G counted along it
Sequence of NRAS WT (P62937 whole entry): as the sequence (P62937 whole entry) above

SMILES	pIC50 [1]	pIC50 [2]	pIC50 [3]	pIC50 [4, 8]	pIC50 [5]	pIC50 [6]	pIC50 [7]	IC50 ([3]; read-out: H358 Cell Viability (K-Ras G12C) IC50, uM, NCI-H358, 5-day treatment) [µM]	pIC50 ([4]; with Cyclophilin A, BRAF RBD, read-out: FRET (K-Ras G13C) IC50)
CC#CC(=O)N1CC(N(C)C(=O)N(C)[C@H](C(=O)N[C@H]2Cc3nc(cs3)-c3ccc4c(c3)c(c(-c3cccnc3[C@H](C)OC)n4CC)CC(C)(C)COC(=O)[C@@H]3CCCN(N3)C2=O)C(C)C)C1 (atropisomer, axis not shown) [Example A731]	6.00 to 7.00	6.00 to 7.00	6.00 to 7.00	6.00 to 7.00	5.00 to 6.00	5.00 to 6.00	5.00 to 6.00		
C=C(F)C(=O)N1CC(N(C)C(=O)N(C)[C@H](C(=O)N[C@H]2Cc3nc(cs3)-c3ccc4c(c3)c(c(-c3cccnc3[C@H](C)OC)n4CC)CC(C)(C)COC(=O)[C@@H]3CCCN(N3)C2=O)C(C)C)C1 (atropisomer, axis not shown) [Example A732]	6.00 to 7.00	6.00 to 7.00	7.00 to 8.00	6.00 to 7.00	5.00 to 6.00	5.00 to 6.00	6.00 to 7.00		
C=CC(=O)N1CCN(C(=O)N(C)[C@H](C(=O)N[C@H]2Cc3nc(cs3)-c3ccc4c(c3)c(c(-c3cccnc3[C@H](C)OC)n4CC)CC(C)(C)COC(=O)[C@@H]3CCCN(N3)C2=O)C(C)C)[C@H]2C[C@H]21 (atropisomer, axis not shown) [Example A737]	7.00 to 8.00	7.00 to 8.00	7.00 to 8.00	7.00 to 8.00	6.00 to 7.00	6.00 to 7.00	7.00 to 8.00		
C=CS(=O)(=O)N1CCC(C(=O)N(C)[C@H](C(=O)N[C@H]2Cc3nc(cs3)-c3ccc4c(c3)c(c(-c3cncnc3)n4CC)CC(C)(C)COC(=O)[C@@H]3CCCN(N3)C2=O)C(C)C)C1 (single isomer, unassigned) [Example A170]	< 5.00	5.00 to 6.00	6.00 to 7.00	5.00 to 6.00	< 5.00	< 5.00	< 5.00		
C=CS(=O)(=O)N1CCC(C(=O)N(C)[C@H](C(=O)N[C@H]2Cc3cccc(c3)-c3ccc4c(c3)c(c(-c3cncnc3)n4CC)CC(C)(C)COC(=O)[C@@H]3CCCN(N3)C2=O)C(C)C)C1 (single isomer, unassigned) [Example A171]	< 5.00	5.00 to 6.00	6.00 to 7.00	5.00 to 6.00	< 5.00	< 5.00	< 5.00		
C=CC(=O)N1CC[C@H](C(=O)N(C)[C@H](C(=O)N[C@H]2Cc3cc(ccn3)-c3ccc4c(c3)c(c(-c3cccnc3COC)n4CC)CC(C)(C)COC(=O)[C@@H]3CCCN(N3)C2=O)C(C)C)C1 [Example A136]	< 5.00	5.00 to 6.00	< 6.00	< 5.00	< 5.00	< 5.00	< 5.00		
C=CC(=O)N1CC[C@H](C(=O)N(C)[C@H](C(=O)N[C@H]2Cc3cc(O)cc(c3)-c3ccc4c(c3)c(c(-c3cncs3)n4CC)CC(C)(C)COC(=O)[C@@H]3CCCN(N3)C2=O)C(C)C)C1 [Example A143]	< 5.00	6.00 to 7.00	7.00 to 8.00	< 5.00	5.00 to 6.00	< 5.00	< 5.00		
C=CC(=O)N1CC[C@H](C(=O)N(C)[C@H](C(=O)N[C@H]2Cc3cc(O)cc(c3)-c3ccc4c(c3)c(c(-c3cccc(=O)n3C(C)C)n4CC)CC(C)(C)COC(=O)[C@@H]3CCCN(N3)C2=O)C(C)C)C1 [Example A151]	5.00 to 6.00	6.00 to 7.00	6.00 to 7.00	< 5.00	5.00 to 6.00	< 5.00	< 5.00		
C=CC(=O)N1CC[C@H](C(=O)N(C)[C@H](C(=O)N[C@H]2Cc3cc(O)cc(c3)-c3ccc4c(c3)c(c(-c3cccnc3)n4[C@H](C)C#N)CC(C)(C)COC(=O)[C@@H]3CCCN(N3)C2=O)C(C)C)C1 [Example A193]	5.00 to 6.00	6.00 to 7.00		5.00 to 6.00	6.00 to 7.00	< 5.00	5.00 to 6.00	0.054	4.99
C=CC(=O)N1CC[C@H](C(=O)N(C)[C@H](C(=O)N[C@H]2Cc3cc(O)cc(c3)-c3ccc4c(c3)c(c(-c3c(C)cccc3C)n4CC)CC(C)(C)COC(=O)[C@@H]3CCCN(N3)C2=O)C(C)C)C1 [Example A226]	< 5.00	6.00 to 7.00	6.00 to 7.00	< 5.00	5.00 to 6.00	< 5.00	< 5.00		
C=CC(=O)N1CC[C@H](C(=O)N(C)[C@H](C(=O)N[C@H]2Cc3cc(O)cc(c3)-c3ccc4c(c3)c(c(-c3cccc5c3COC5)n4CC)CC(C)(C)COC(=O)[C@@H]3CCCN(N3)C2=O)C(C)C)C1 [Example A227]	5.00 to 6.00	6.00 to 7.00	6.00 to 7.00	5.00 to 6.00	5.00 to 6.00	< 5.00	< 5.00		
C=CC(=O)N1CC[C@H](C(=O)N(C)[C@H](C(=O)N[C@H]2Cc3cc(O)cc(c3)-c3ccc4c(c3)c(c(-c3cnc(N(C)C)s3)n4CC)CC(C)(C)COC(=O)[C@@H]3CCCN(N3)C2=O)C(C)C)C1 [Example A302]	< 5.00	6.00 to 7.00	7.00 to 8.00	6.00 to 7.00	5.00 to 6.00	< 5.00	< 5.00		
C=CC(=O)N1CC[C@H](C(=O)N(C)[C@H](C(=O)N[C@H]2Cc3cc(O)cc(c3)-c3ccc4c(c3)c(c(-c3csc(N(C)C)n3)n4CC)CC(C)(C)COC(=O)[C@@H]3CCCN(N3)C2=O)C(C)C)C1 [Example A303]	< 5.00	5.00 to 6.00	6.00 to 7.00	< 5.00	< 5.00	< 5.00	< 5.00		
C=CC(=O)N1CCOC2(CCN(C(=O)N(C)[C@H](C(=O)N[C@H]3C[C@H]4CN(CCO4)c4ccc5c(c4)c(c(-c4cccnc4[C@H](C)OC)n5CC)CC(C)(C)COC(=O)[C@@H]4CCCN(N4)C3=O)C(C)C)CC2)C1 [Example A564]	6.00 to 7.00	6.00 to 7.00	7.00 to 8.00	7.00 to 8.00	6.00 to 7.00	5.00 to 6.00	5.00 to 6.00		
CCn1c(-c2cccnc2[C@H](C)OC)c2c3cc(ccc31)-c1cccc(c1)CC(NC(=O)[C@H](C(C)C)N1CC[C@]3(CCN(C(=O)C#C[C@@H]4COCCN4C4COC4)C3)C1=O)C(=O)N1CCC[C@H](N1)C(=O)OCC(C)(C)C2 (stereo partly shown) [Example A565]	< 5.00	6.00 to 7.00	7.00 to 8.00	5.00 to 6.00	5.00 to 6.00	< 5.00	< 5.00		
C=CC(=O)N1CC[C@H](C(=O)N(C)[C@H](C(=O)N[C@H]2Cc3cccc(c3)-c3ccc4c(c3)c(c(-c3cccnc3[C@H](C)OC)n4CC)CC(C)(C)COC(=O)[C@@H]3CCCN(N3)C2=O)C(C)C(F)(F)F)C1 (stereo partly shown) [Example A641]	5.00 to 6.00	6.00 to 7.00	7.00 to 8.00	5.00 to 6.00	5.00 to 6.00	< 5.00	5.00 to 6.00		
CCn1c(-c2cccnc2[C@H](C)OC)c2c3cc(ccc31)C1CCCN(C1)C[C@H](NC(=O)[C@@H](COC1CN(C(=O)C#CC(C)(C)N(C)C)C1)C(C)C)C(=O)N1CCC[C@H](N1)C(=O)OCC(C)(C)C2 [Example A646, (2R)-2-(((1-(4-(dimethylamino)-4-methylpent-2-ynoyl)azetidin-3-yl)oxy)methyl)-N-((6^3S,4S)-1^1-ethyl-1^2-(2-((S)-1-methoxyethyl)pyridin-3-yl)-10,10-dimethyl-5,7-dioxo-6^1,6^2,6^3,6^4,6^5,6^6-hexahydro-1^1H-8-oxa-1(5,3)-indola-6(1,3)-pyridazina-2(3,1)-piperidinacycloundecaphane-4-yl)-3-methylbutanamide]	< 5.00	7.00 to 8.00	7.00 to 8.00	< 5.00	< 5.00	< 5.00	< 5.00		
C=CC(=O)C1CC[C@H](C(=O)N(C)[C@H](C(=O)N[C@H]2Cc3nsc(n3)-c3ccc4c(c3)c(c(-c3cccnc3[C@H](C)OC)n4CC)CC(C)(C)COC(=O)[C@@H]3CCCN(N3)C2=O)C(C)C)C1 (stereo partly shown) [Example A694]	5.00 to 6.00	6.00 to 7.00	7.00 to 8.00	6.00 to 7.00	5.00 to 6.00	5.00 to 6.00	5.00 to 6.00		
